From the NIST ThermoML archive (doi:10.1021/acs.jced.8b00120)
± gives the expanded uncertainty stated by the source.

Assays:
[1] = 298.15 K; 101.33 kPa; Liquid; Buoyancy - hydrostatic balance
[2] = refractive index (Na D-line) (dimensionless); settings: 298.15 K; 101.33 kPa; Liquid; Standard Abbe refractometry

mass density [1] [kg/m3]	refractive index [2]	SMILES
791.814 ± 10	1.3279 ± 0.0011	CO [methanol]
801.652 ± 10	1.394 ± 0.0011	CC(C)CO [2-methyl-1-propanol]
805.881 ± 10	1.3975 ± 0.0011	CCCCO [butan-1-ol]

More lines, now with the values behind:

SMILES	mass density [1] [kg/m3]	refractive index [2]
O [water]		1.3324 ± 0.001
CC#N [acetonitrile]	785.712 ± 10	1.3452 ± 0.001
CN(C)C=O [dimethylformamide]	944.689 ± 10	1.4279 ± 0.0011
CC(C)c1ccccc1 [isopropylbenzene]	864.115 ± 10	1.4907 ± 0.0011
CC(=O)CC(C)C [4-methylpentan-2-one]	800.589 ± 10	1.3964 ± 0.0011
